Among the data in PubChem BioAssay AID342 (DTP/NCI, 2004) are T/C values, retold here.

Several values for one entry are separate records, joined by “and”; a condition that tells them apart may be missing. Equal entries are not always repeated. Square brackets hold non-standard residues; d marks the D form. Peptide text beside a SMILES is read from it. Ac5c = NC1(C(=O)O)CCCC1

For the assay, the system named is Swiss mice, Sarcoma 180 sc, mean tumor weight T/C. In words: NCI In Vivo Anticancer Drug Screen. Data for tumor model Sarcoma 180 (subcutaneous) in Swiss mice. The following applies: endpoint: mean tumor weight, higher = larger tumour. The method in brief:
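Transplantable tumors were established in mice, compound was given, then survival or tumor size was recorded. The treated value was divided by the vehicle-control value.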

Setting [1] is: dose: 100.0 mg/kg/injection, schedule: Q01DX007 (ip), vehicle: saline.
[2] abbreviates: dose: 62.0 mg/kg/injection, schedule: Q01DX007 (ip), vehicle: carboxymethylcellulose (CMC).

For the molecule `NCC(=O)NC1(C(=O)O)CCCC1` (H-Gly-[Ac5c]-OH), the T/C runs as follows: (dose: 66.0 mg/kg/injection, schedule: Q01DX007 (ip), vehicle: saline) 57 % of control; under setting [1], 103 % of control; (dose: 150.0 mg/kg/injection, schedule: Q01DX007 (ip), vehicle: saline) 45 % of control; (dose: 225.0 mg/kg/injection, schedule: Q01DX007 (ip), vehicle: saline) 47 % of control.

Turning to `CCC1=C(c2cc(Cl)c3ccccc3c2OCC(=O)O)OC(CC)(C(=O)c2cc(Cl)c3ccccc3c2OCC(=O)O)CC1` (stereo unspecified), the T/C is 110 % of control (dose: 2.0 mg/kg/injection, schedule: Q01DX007 (ip), vehicle: other); 120 % of control (dose: 4.0 mg/kg/injection, schedule: Q01DX007 (ip), vehicle: other); 90 % of control (dose: 8.0 mg/kg/injection, schedule: Q01DX007 (ip), vehicle: other); 112 % of control (dose: 16.0 mg/kg/injection, schedule: Q01DX007 (ip), vehicle: other); 95 % of control (dose: 75.0 mg/kg/injection, schedule: Q01DX007 (ip), vehicle: other); 49 % of control (dose: 111.0 mg/kg/injection, schedule: Q01DX007 (ip), vehicle: other).

Consider `CC1CC(C)C(O)C(C(O)CC2CC(=O)NC(=O)C2)C1` (stereo unspecified), for which the T/C (dose: 40.0 mg/kg/injection, schedule: Q01DX007 (ip), vehicle: carboxymethylcellulose (CMC)) was 84 % of control; the T/C under setting [2] was 55 % of control; the T/C (dose: 93.0 mg/kg/injection, schedule: Q01DX007 (ip), vehicle: carboxymethylcellulose (CMC)) is 44 % of control.

With `CC(=O)OCC1OC(n2cnc3c(=S)nc(N)[nH]c32)C(OC(C)=O)C1OC(C)=O` (stereo unspecified), the T/C is, setting by setting: (dose: 3.0 mg/kg/injection, schedule: Q01DX007 (ip), vehicle: other) 12 % of control; (dose: 3.0 mg/kg/injection, schedule: Q01DX007 (ip), vehicle: saline) 64 % of control; (dose: 4.4 mg/kg/injection, schedule: Q01DX007 (ip), vehicle: other) 6 % of control; (dose: 6.6 mg/kg/injection, schedule: Q01DX007 (ip), vehicle: carboxymethylcellulose (CMC)) 43 % of control; (dose: 6.6 mg/kg/injection, schedule: Q01DX007 (ip), vehicle: other) 18 % of control and 29 % of control; (dose: 10.0 mg/kg/injection, schedule: Q01DX007 (ip), vehicle: carboxymethylcellulose (CMC)) 28 % of control. Besides, the T/C was 51 % of control (dose: 10.0 mg/kg/injection, schedule: Q01DX007 (ip), vehicle: other); 9 % of control (dose: 15.0 mg/kg/injection, schedule: Q01DX007 (ip), vehicle: carboxymethylcellulose (CMC)); 6 % of control and 24 % of control (dose: 15.0 mg/kg/injection, schedule: Q01DX007 (ip), vehicle: other); 9 % of control (dose: 22.0 mg/kg/injection, schedule: Q01DX007 (ip), vehicle: carboxymethylcellulose (CMC)); 3 % of control and 10 % of control (dose: 22.0 mg/kg/injection, schedule: Q01DX007 (ip), vehicle: other); 11 % of control (dose: 33.0 mg/kg/injection, schedule: Q01DX007 (ip), vehicle: other).

Regarding `CC(=O)Nc1cc2c(cc1[N+](=O)[O-])-c1ccccc1C2O` (stereo unspecified), the T/C (dose: 98.0 mg/kg/injection, schedule: Q01DX007 (ip), vehicle: other) is 100 % of control; the T/C (dose: 148.0 mg/kg/injection, schedule: Q01DX007 (ip), vehicle: other) is 120 % of control; the T/C (dose: 333.0 mg/kg/injection, schedule: Q01DX007 (ip), vehicle: other) is 65 % of control and 67 % of control; the T/C (dose: 333.0 mg/kg/injection, schedule: Q01DX007 (ip), vehicle: saline) was 81 % of control; the T/C (dose: 500.0 mg/kg/injection, schedule: Q01DX007 (ip), vehicle: other) is 25 % of control; the T/C (dose: 500.0 mg/kg/injection, schedule: Q01DX007 (ip), vehicle: saline) is 93 % of control. In addition, the T/C (dose: 750.0 mg/kg/injection, schedule: Q01DX007 (ip), vehicle: saline) was 64 % of control.

With `CCCCN(C)N=Nc1n[nH]nc1C(N)=O`, the T/C is 93 % of control (dose: 16.0 mg/kg/injection, schedule: Q01DX007 (ip), vehicle: carboxymethylcellulose (CMC)); 85 % of control (dose: 31.0 mg/kg/injection, schedule: Q01DX007 (ip), vehicle: carboxymethylcellulose (CMC)); 38 % of control under setting [2].

Take `CN(C)[C@@H]1C(=O)C(C(=O)NCNC(CO)(CO)CO)=C(O)[C@@]2(O)C(=O)C3=C(O)c4c(O)cccc4[C@@](C)(O)[C@H]3C[C@@H]12`: the T/C by setting is: (dose: 55.0 mg/kg/injection, schedule: Q#A X014 (ip), vehicle: saline) 65 % of control; (dose: 83.0 mg/kg/injection, schedule: Q#A X014 (ip), vehicle: saline) 93 % of control; (dose: 100.0 mg/kg/injection, schedule: Q01DX007 (ip), vehicle: methylcellulose (MC)) 83 % of control; under setting [1], 119 % of control; (dose: 125.0 mg/kg/injection, schedule: Q#A X014 (ip), vehicle: saline) 52 % of control; (dose: 140.0 mg/kg/injection, schedule: Q01DX007 (ip), vehicle: methylcellulose (MC)) 62 % of control. In addition, the T/C is, setting by setting: (dose: 140.0 mg/kg/injection, schedule: Q01DX007 (ip), vehicle: saline) 83 % of control; (dose: 210.0 mg/kg/injection, schedule: Q01DX007 (ip), vehicle: methylcellulose (MC)) 38 % of control; (dose: 210.0 mg/kg/injection, schedule: Q01DX007 (ip), vehicle: other) 86 % of control; (dose: 210.0 mg/kg/injection, schedule: Q01DX007 (ip), vehicle: saline) 65 % of control; (dose: 320.0 mg/kg/injection, schedule: Q01DX007 (ip), vehicle: methylcellulose (MC)) 33 % of control.
